Values quoted from earlier work, collected in EP0137640A1, “Chain extended analogues of methotrexate and aminopterin” (DANA-FARBER CANCER INSTITUTE, INC., priority 1983, dated 1985).

Test system: carboxypeptidase Gl
Details: as described by Chabner et al. (1972) Nature, 239, 395

## CN(Cc1cnc2nc(N)nc(N)c2n1)c1ccc(C(=O)N[C@@H](CCC(=O)O)C(=O)O)cc1 [MTX, 4-amino-4-deoxy-N^10-methyl-pteroylglutamic acid]
  cleavage by carboxypeptidase Gl: rapidly cleaved
